Reference: BindingDB's records for patent US20230303547 (Mission Therapeutics, 2023)
pIC50: −log10 of the molar value.

Molecular target: T1, Ubiquitin carboxyl-terminal hydrolase 30 (Homo sapiens, UniProt Q70CQ3)
T1 sequence (Q70CQ3 whole entry): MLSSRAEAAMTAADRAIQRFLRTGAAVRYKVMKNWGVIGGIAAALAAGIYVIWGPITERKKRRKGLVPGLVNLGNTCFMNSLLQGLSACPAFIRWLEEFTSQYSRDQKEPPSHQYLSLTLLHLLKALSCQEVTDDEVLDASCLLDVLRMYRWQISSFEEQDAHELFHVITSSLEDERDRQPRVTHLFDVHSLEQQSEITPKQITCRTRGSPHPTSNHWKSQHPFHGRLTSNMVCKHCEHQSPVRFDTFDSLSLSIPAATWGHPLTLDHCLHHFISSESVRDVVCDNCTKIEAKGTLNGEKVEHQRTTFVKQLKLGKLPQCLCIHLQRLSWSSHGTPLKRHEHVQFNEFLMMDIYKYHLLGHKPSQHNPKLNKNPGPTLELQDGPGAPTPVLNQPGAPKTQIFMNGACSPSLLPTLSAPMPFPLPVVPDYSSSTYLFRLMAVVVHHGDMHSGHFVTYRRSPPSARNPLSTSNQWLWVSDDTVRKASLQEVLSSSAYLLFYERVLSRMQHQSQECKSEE
Assay: USP30 Biochemical IC50 Assay
Protocol: Dilution plates were prepared at 21 times the final concentration (2100 µM for a final concentration of 100 µM) in 50% DMSO in a 96-well polypropylene V-bottom plate (Greiner #651201). A typical 8-point dilution series would be 100, 30, 10, 3, 1, 0.3, 0.1, 0.03 µM final. Reactions were performed in duplicate in black 384 well plates (small volume, Greiner 784076) in a final reaction volume of 21 µl. Either 1 µl of 50% DMSO or diluted compound was added to the plate. USP30 (Boston Biochem #E582) was diluted in reaction buffer (40 mM Tris, pH 7.5, 0.005% Tween 20, 0.5 mg/ml BSA, 5 mM beta-mercaptoethanol) to achieve a final assay concentration of 4 nM, and 10 µl of diluted USP30 was added to the compound. Enzyme and compound were incubated for 30 min at room temp. Reactions were initiated by the addition of 50 nM of TAMRA labelled peptide linked to ubiquitin via an iso-peptide bond as fluorescence polarisation substrate. Reactions were read immediately after addition of substrate and following a 2-hour incubation at room temperature. Readings were performed on a Pherastar Plus (BMG Labtech). λ Excitation 540 nm; λ Emission 590 nm.

Compound	pIC50
C[C@@H]1C[C@@H](NC(=O)c2ncc(-c3cc(C#N)ccc3OC3CC3)o2)CN1C#N [US20230303547, Example 1]	8.52
COC[C@@H]1C[C@@H](NC(=O)c2ncc(-c3cc(C#N)ccc3OC3CC3)o2)CN1C#N [US20230303547, Example 2]	8.52
N#Cc1ccc(OC2CC2)c(-c2cnc(C(=O)N[C@@H]3C[C@@H](CF)N(C#N)C3)o2)c1 [US20230303547, Example 3]	9.00
COc1ccc(C#N)cc1-c1cnc(C(=O)N[C@@H]2C[C@@H](C)N(C#N)C2)o1 [US20230303547, Example 4]	8.70
